Experimental data taken from a melting point compilation (Tetko et al.; mined from patent text by program, amines drawn as free bases though some values may be those of a salt).

First: CSC(=N[N+](=O)[O-])NCc1cnc(Cl)s1
Second: Cc1ccc(-c2noc3c(Cl)c(OCC(=O)O)ccc23)s1
The melting point of the first is lower: 162 to 165 °C for the first, 235 to 238 °C for the second.

First: CC(C)(CNc1ccnc2cc(Cl)ccc12)NCc1ccncc1
Second: Oc1ccc(-c2ccc3ccccc3c2)nc1
The melting point of the first is lower: 157 to 159 °C for the first, 168 to 169 °C for the second.

Compared with Cc1cc(C(=O)N(C)C)c(O)c([N+](=O)[O-])c1, Cc1ccnc2c([N+](=O)[O-])cc(F)cc12 is lower in melting point: 160 to 162 °C for the first, 139 to 141 °C for the second.

Compared with Cc1ccc(C(=O)c2ccc(O)c(CC(=O)O)c2)cc1, CCOC(=O)c1sc2[nH]c(C(=O)c3ccccc3)cc2c1C is lower in melting point: 218 °C for the first, 180 to 181 °C for the second.

Compared with NC(=O)C(Nc1ccc(Cl)cc1)c1c(Cl)ccc(N)c1Cl (stereo not given), CC(=O)Nc1ccc(OCC(O)CCCl)cc1 (stereo not given) is lower in melting point: 232 °C for the first, 124 to 127 °C for the second.

First: N#CNC(=S)Nc1ccc(OCc2ccccc2)cc1
Second: CCOC(=O)C(=O)Nc1ccc(-n2ccnc2)cc1
The melting point of the first is higher: > 270 °C for the first, 177 to 180 °C for the second.

Compared with Cc1ccc(CNc2nc(Nc3cccc(C(F)(F)F)c3)nc(OCC(F)(F)F)n2)o1, O=C(O)Cc1c(C(=O)O)c2cc(Oc3ccc(C(F)(F)F)cc3)ccc2n1-c1ccc(N2CCOCC2)cc1 is higher in melting point: 72 to 74 °C for the first, 257 to 259 °C for the second.

First: NC(=O)NCc1ccc2c(c1)CN(C1CCC(=O)NC1=O)C2=O (stereo not given)
Second: CC(=O)N1CCc2c([nH]c3ccccc23)C1
The melting point of the first is lower: 224 to 226 °C for the first, 240 to 241 °C for the second.

Compared with CCCCOP(=O)(CCCC1(c2ccccn2)c2ccccc2-c2ccccc21)OCCCC, O=C1c2ccccc2C(=O)N1CCc1cc(-c2ccc(F)cc2)no1 is higher in melting point: 126 to 128 °C for the first, 155 to 156 °C for the second.

First: O=C(c1ccc(Cl)cc1)C1CCN(S(=O)(=O)N2CCCC[C@@H]2C(=O)NO)CC1
Second: O=C(O)c1ccc(N2CCOCC2)c(NC(=O)C(CS)Cc2ccccc2)c1 (stereo not given)
The melting point of the first is lower: 84.4 to 86.4 °C for the first, 218 to 222 °C for the second.

Compared with CN1C2CCC1CC(c1c[nH]c3cc(F)ccc13)C2 (stereo not given), O=C(O)C1c2ccccc2COc2ccc(F)cc21 (stereo not given) is higher in melting point: 168 to 169 °C for the first, 176 °C for the second.

First: CCCCCN(CCC12CC3CC(CC(C3)C1)C2)C(=O)NCCc1ccccn1
Second: O=NSC1(CCO)C2CC3CC(C2)CC1C3 (stereo not given)
The melting point of the first is higher: 80 to 100 °C for the first, 77 to 79 °C for the second.

First: O=C(c1ccc(-n2cccn2)cc1)N1Cc2cccn2Cc2ccccc21
Second: COc1ccc(-c2ccc(C(=O)Nc3ccc4cc(CN5CCCCCC5)cnc4c3C)cc2)cc1
The melting point of the first is higher: 179 to 181 °C for the first, 165 to 167 °C for the second.

Compared with O=Cc1ccc2cccnc2c1, Cc1cnc2sc(S(=O)(=O)Cc3ccccc3)nn2c1=O is higher in melting point: 56 °C for the first, 171 to 173 °C for the second.

Cc1c([N+](=O)[O-])ccc2[nH]cc(CCCO)c12 and CCCc1nc(C)n2nc(SC)nc2c1Cc1ccc([N+](=O)[O-])cc1 cannot be ordered by melting point: 129 to 130 °C for the first, 130 °C for the second.

First: COc1cc2nc(N)nc(-c3ccc(O)c(C(=O)O)c3)c2cc1OC
Second: CC(=NNc1ccc(-c2ccc(=O)n(C)n2)cc1)c1ccc(O)cc1O
The melting point of the first is higher: > 300 °C for the first, 263 to 268 °C for the second.

First: Cc1ccc(N(c2ccc(C)cc2)c2ccc(-c3ccc(-c4ccc(N(c5ccc(C)cc5)c5ccc(C)cc5)cc4)cc3)cc2)cc1
Second: CC(C)(C)c1ccc(-c2[nH]c3cccc4c3c2CCNC4=O)cc1
The melting point of the first is lower: 232 to 234 °C for the first, 243 to 244 °C for the second.

Compared with O=c1n(-c2ccccc2)c(=O)n(SC(Cl)(Cl)Cl)n1SC(Cl)(Cl)Cl, CC(C)Cn1c(=O)n(C)c(=O)c2c(SCCCO)n(Cc3cccc4ccccc34)nc21 is lower in melting point: 175 °C for the first, 135 °C for the second.

First: COCc1ncccc1CN(CCn1ccc2oc(C)cc2c1=O)Cc1ccc2c(c1)N(C)C(=O)C(C)(C)C(=O)N2C1CC1
Second: CC(C)OC(C)c1cc2c(=O)n(NS(C)(=O)=O)c(=O)[nH]c2cc1C(F)(F)F (stereo not given)
The melting point of the first is higher: 146 to 148 °C for the first, 110 to 115 °C for the second.

First: O=C(NCCCC(NC(=O)c1ccccc1)C(O)C(F)(F)F)c1ccccc1 (stereo not given)
Second: O=C1CCC(c2ccc(-n3cnc4c3CCCC4)cc2)=NN1
The melting point of the first is lower: 103 °C for the first, 296 to 297 °C for the second.
